{"source": "patent US12138256B2", "about": "“Treatment of cardiopulmonary disorders” (Bayer Aktiengesellschaft, priority 2021, dated 2024)", "key": {"systemic blood pressure": {"tested_on": "systemic blood pressure", "assay": "First clinical studies in healthy volunteers: systemic blood pressure", "format": "in vivo, human", "settings": "up to 4000 μg, dry powder inhaled"}, "[1]": {"tested_on": "acetylcholine-induced bronchospasm", "assay": "Bronchorelaxation in vivo: acetylcholine-induced bronchoconstriction in Brown Norway rats, RL and Cdyn (C-3.2)", "set-up": "species or system rat", "settings": "inhaled 60 minutes before provocation; tiotropium 1 μg/kg; comparative example 11 1, 10 and 100 μg/kg", "method": "The bronchoconstriction model (see Hoymann H G. Lung function measurements in rodents in safety pharmacology studies. Front Pharmacol 2012; 3:156) used Male Brown Norway rats (Charles River, Sulzfeld, Germany; 10-12 weeks old) randomized to three treatment groups (comparative example 11, 1 μg/kg, 10 μg/kg, and 100 μg/kg; n=12-13), one positive control group (tiotropium 1 μg/kg; n=12), and one vehicle control group (n=17). Animals were treated with the inhaled test compounds 60 minutes before provocation. Comparative example 11, vehicle, or tiotropium were aerosolized using a micro feeding system and a dispersion nozzle operated with pressurized air. The aerosol concentration was determined by filter sampling with gravimetrical analysis and monitored continuously by a photometer. The lung-deposited doses were assessed from the inhalation dose (Raabe O G, Al-Bayati M A, Teague S V, Rasolt A. Regional Deposition of Inhaled Monodisperse Coarse and Fine Aerosol Particles in Small Laboratory Animals. The Annals of Occupational Hygiene 1988; 32:53-63.). […] After reaching a steady state in respiration, lung function of the spontaneously breathing animal was recorded as baseline values for ≥2 minutes; amongst other parameters, lung resistance (=RL) and dynamic compliance (=Cdyn) were used to assess bronchoconstriction. […]"}, "Caco-2 cells": {"tested_on": "Caco-2 cells", "assay": "Caco-2 permeability test (C-5.1)", "format": "in vitro ADME, human", "settings": "2 μM", "method": "The in vitro permeation of a test compound across a Caco-2 cell monolayer is a well-established assay system to predict the permeability from the gastro-intestinal tract (1). The permeability of the compounds of the present invention in such Caco-2 cells was determined as described below:\nHuman caco-2 cells were seeded on 24-well insert plates and were allowed to grow for 14-16 days. For permeability studies, the test compounds were dissolved in DMSO and diluted to the final test concentration of 2 μM with transport buffer [Hanks' Buffered Salt Solution, Gibco/Invitrogen, further supplemented with glucose and HEPES]. For determination of the apical to basolateral permeability (PappA-B), the test compound solution was added to the apical side of the cell monolayer and transport buffer to the basolateral side of the monolayer; for determination of the basolateral to apical permeability (PappB-A), the test compound solution was added to the basolateral side of the cell monolayer and transport buffer to the apical side of the monolayer. Samples were taken from the donor compartment at the beginning of the experiment to confirm mass balance. After an incubation of 2 h at 37° C., samples were taken from both compartments. Samples were analyzed by LC-MS/MS, and the apparent permeability coefficients were calculated. Lucifer Yellow permeability was assayed for each cell monolayer to ensure cell monolayer integrity, and the permeability of Atenolol (low permeability marker) and Sulfasalazine (marker for active excretion) was determined for each batch as quality control."}, "plasma proteins [2]": {"tested_on": "plasma proteins", "assay": "Protein binding via Transil assay, human plasma", "format": "in vitro ADME", "settings": "plasma", "text": "(§1) The distribution of a test substance between Transil® (phosphatidylcholine lipid bilayers immobilized on silica beads) and plasma is a characteristic feature of any pharmaceutical compound and is dependent on its extent of binding to plasma proteins. By comparing the distribution between Transil® and buffer with the distribution between Transil® and plasma of any species of interest, the unbound fraction in the plasma of the respective animal species can be calculated in vitro. The respective plasma and buffer concentrations were determined via a radioactivity analysis. A detailed description of the method and its validation was published by Schuhmacher et al. (2)."}, "plasma proteins [3]": {"tested_on": "plasma proteins", "assay": "Protein binding via Transil assay, rat plasma", "format": "in vitro ADME", "settings": "rat plasma", "text": "as §1"}, "[4]": {"assay": "Thermal stability of the solid (90° C., 7 days, HPLC peak areas)", "format": "physicochemical", "method": "0.3 mg of the test compound, e.g. comparative example 11 were solved in 0.1 ml dimethylsulfoxide and 0.4 ml acetonitrile. Then 1.0 ml water was added. For complete dissolution the HPLC vial was shaken and sonicated. This solution was immediately analyzed by HPLC (reference at t0). 0.3 mg of the test compound was weighed into another HPLC vial. The vial was capped and stored for 7 days in a heating block at 90° C.\nAfter this time the vial was decapped and 0.1 ml dimethylsulfoxide and 0.4 ml acetonitrile were added to the stressed compound. Then 1.0 ml water was added. For complete dissolution the HPLC vial was shaken and sonicated. The sample was analyzed by HPLC (sample after 1 week). The peak areas in percentage are used for quantification."}}, "data": [{"compound": "O=C(O)c1ccc(CCN(CCc2ccccc2OCc2ccc(-c3ccc(C(F)(F)F)cc3)cc2Cl)[C@H]2CCCc3nc(C(=O)O)ccc32)cc1", "note": "[example 4, (5S)-{[2-(4-Carboxyphenyl)ethyl][2-(2-{[3-chloro-4′-(trifluoromethyl)biphenyl-4-yl]methoxy}phenyl)-ethyl]amino}-5,6,7,8-tetrahydroquinoline-2-carboxylic acid]", "values": [{"measurement": "effect on systemic blood pressure in healthy volunteers", "setting": "systemic blood pressure", "value": "no clinically meaningful effect on systemic blood pressure"}]}, {"compound": "O=C(O)c1ccc(CCN(CCc2ccccc2OCc2ccc(-c3ccc(C(F)(F)F)cc3)cc2Cl)[C@H]2CCCc3nc(C(=O)O)ccc32)cc1", "note": "[comparative example 11, (5S)-5-{[2-(4-carboxyphenyl)ethyl][2-(2-{[3-chloro-4′-(trifluoromethyl)[biphenyl]-4-yl]methoxy}phenyl)ethyl]amino}-5,6,7,8-tetrahydroquinoline-2-carboxylic acid]", "values": [{"measurement": "bronchodilatory efficacy (RL)", "setting": "[1]", "value": "dose-dependent significant (1, 10 and 100 μg/kg) bronchodilating effect"}, {"measurement": "efflux ratio", "setting": "Caco-2 cells", "value": "does not show an efflux ratio"}, {"measurement": "ratio of fraction unbound minipig/human", "setting": "plasma proteins [2]", "value": 4.55}, {"measurement": "fraction unbound, times lower than comparative example 1", "setting": "plasma proteins [3]", "value": 1.6, "unit": "times"}, {"measurement": "thermal stability", "setting": "[4]", "value": "stable"}]}]}
